Laboratory results: patent US6362369B1, “Phthalic acid diamide derivatives fluorine-containing aniline compounds as starting material, agricultural and horticultural insecticides, and a method for application of the insecticides” (Nihon Nohyaku Co., Ltd., priority 1997, dated 2002)

What was measured:
Assay type in all cases: in vivo
[1] = system: diamondback moth (Plutella xylostella); experiment: Insecticidal effect on diamondback moth (Test Example 1); details: for Insecticidal effect, Test Example 1 / Insecticidal effect (Test Example 1), judged from mortality: diamondback moth; for Insecticidal effect on diamondback moth (Test Example 1), judged grade: mortality judged according to the criterion shown in Test Example 1; for Insecticidal effect (Test Example 1), judged from mortality: judged by the criterion of Test Example 1
Method in brief: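 Eggs laid by adult moths on Chinese cabbage seedlings, which were immersed in test solution, air-dried and kept at 25 °C. Hatched insects counted 6 days after immersion and mortality calculated, with effect graded by criterion; triplicate groups of 10 insects.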

[2] = system: common cutworm (Spodoptera Litura); experiment: Insecticidal effect on common cutworm (Test Example 2); details: 500 ppm, 25° C.; for Insecticidal effect, Test Example 2: cabbage leaf immersed; for Insecticidal effect, Test Example 2 / Insecticidal effect on common cutworm (Test Example 2), judged grade: eight days after inoculation; for Insecticidal effect on common cutworm (Test Example 2), judged grade / Insecticidal effect (Test Example 2), judged from mortality: cabbage leaf dip; for Insecticidal effect on common cutworm (Test Example 2), judged grade: second-instar larvae; for Insecticidal effect (Test Example 2), judged from mortality: 8 days after inoculation
Method in brief: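 After the treated material air-dries, it goes into a dish, second-instar larvae are added, and the dish is closed. Incubation runs at 25° C. On day eight, dead and living larvae are scored, and the calculated mortality is rated on an effect scale.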

[3] = system: rice leafroller (Cnaphalocrocis medinalis); experiment: Insecticidal effect on rice leafroller (Test Example 3); details: 500 ppm, 25° C., humidity 70%; for Insecticidal effect, Test Example 3: rice lamina immersed; for Insecticidal effect, Test Example 3 / Insecticidal effect on rice leafroller (Test Example 3), judged grade: four days after inoculation; for Insecticidal effect on rice leafroller (Test Example 3), judged grade / Insecticidal effect (Test Example 3), judged from mortality: rice lamina dip; for Insecticidal effect on rice leafroller (Test Example 3), judged grade: third-instar larvae; for Insecticidal effect (Test Example 3), judged from mortality: 4 days after inoculation
Method in brief: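 Groups of 10 third-instar larvae, in triplicate, are placed on air-dried lamina resting on wet filter paper. Incubation runs four days at 25° C with 70% humidity before survivors and dead are tallied.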

[4] = mortality judged by criterion of Test Example 1
[5] = common cutworm second-instar larvae
[6] = rice leafroller third-instar larvae
[7] = second-instar larvae of common cutworm
[8] = third-instar larvae of rice leafroller
[9] = judged by the mortality criterion of Test Example 1

| SMILES | Insecticidal effect, Test Example 1 [1, 4] | Insecticidal effect, Test Example 2 [2, 5] | Insecticidal effect, Test Example 3 [3, 6] | Insecticidal effect on diamondback moth (Test Example 1), judged grade [1] | Insecticidal effect on common cutworm (Test Example 2), judged grade [2] | Insecticidal effect on rice leafroller (Test Example 3), judged grade [3] | further results |
| --- | --- | --- | --- | --- | --- | --- | --- |
| Cc1cc(OC(F)F)ccc1NC(=O)c1ccc(I)cc1C(=O)NC(C)C [compound 1204] | A (100) | A (100) | A (100) | – | – | – | – |
| Cc1ccc(F)cc1NC(=O)c1cccc([N+](=O)[O-])c1C(=O)NCCF [compound 862] | – | – | – | A (100) | D (79-50) | D (79-50) | – |
| CC(C)NC(=O)c1c(Cl)cccc1C(=O)Nc1ccc(C(F)(F)C(F)(F)C(F)(F)F)cc1F [compound 1494] | – | – | – | – | – | – | Insecticidal effect (Test Example 1), judged from mortality [1]: A (100); Insecticidal effect (Test Example 2), judged from mortality [2, 7]: A (100); Insecticidal effect (Test Example 3), judged from mortality [3, 8]: A (100) |
| CC(C)NC(=O)c1c(Cl)cccc1C(=O)Nc1ccc2c(c1)OC(F)(F)O2 [compound 1101] | A (100) | C (89-80) | A (100) | – | – | – | – |
| Cc1cc(C(F)(F)C(F)(F)F)ccc1NC(=O)c1cccc(Cl)c1C(=O)NC(C)CBr (stereo not drawn) [compound 1652] | – | – | – | – | – | – | Insecticidal effect (Test Example 1), judged from mortality [1]: A (100); Insecticidal effect (Test Example 2), judged from mortality [2, 7]: A (100); Insecticidal effect (Test Example 3), judged from mortality [3, 8]: A (100) |
| CC(C)NC(=O)c1c(F)cccc1C(=O)Nc1ccc(C(F)(F)C(F)(F)C(F)(F)F)cc1Cl [compound 505] | – | – | – | A (100) | A (100) | A (100) | – |
| CC(C)NC(=O)c1c(Cl)cccc1C(=O)Nc1ccc2c(c1)OC(F)C(F)(F)O2 (stereo not drawn) [compound 1147] | A (100) | A (100) | A (100) | – | – | – | – |
| CC(C)(C)NC(=O)c1c(I)cccc1C(=O)Nc1cc2c(cc1Cl)OC(F)(F)O2 [compound 1624] | – | – | – | – | – | – | Insecticidal effect (Test Example 1), judged from mortality [1]: A (100); Insecticidal effect (Test Example 2), judged from mortality [2, 7]: D (79-50); Insecticidal effect (Test Example 3), judged from mortality [3, 8]: A (100) |
| CCc1cc(OC(F)(F)F)ccc1NC(=O)c1cccc(Cl)c1C(=O)NC(C)C [compound 1209] | A (100) | D (79-50) | A (100) | – | – | – | – |
| Cc1cc(OC(F)(F)C(F)(Br)C(F)(F)F)ccc1NC(=O)c1cccc([N+](=O)[O-])c1C(=O)NC(C)C (stereo not drawn) [compound 700] | – | – | – | A (100) | A (100) | A (100) | – |
| CCC(C)(C)NC(=O)c1c(I)cccc1C(=O)Nc1ccc(OC(F)F)cc1C [compound 1568] | – | – | – | – | – | – | Insecticidal effect (Test Example 1), judged from mortality [1]: A (100); Insecticidal effect (Test Example 2), judged from mortality [2, 7]: A (100); Insecticidal effect (Test Example 3), judged from mortality [3, 8]: A (100) |
| C#CC(C)(C)NC(=O)c1ccccc1C(=O)Nc1ccc(C(F)(F)C(F)(F)F)cc1C [compound 1414] | A (100) | A (100) | A (100) | – | – | – | – |
| Cc1ccccc1NC(=O)c1ccc(Cl)cc1C(=O)NC(C)C [compound 170] | – | – | – | – | – | – | Insecticidal effect, Test Example 1 [1, 9]: A (100); Insecticidal effect, Test Example 2 [2, 7]: D (79-50); Insecticidal effect, Test Example 3 [3, 8]: B (99-90) |
| C#Cc1cccc(C(=O)NC(C)C)c1C(=O)Nc1ccc(Cl)cc1C [compound 801] | – | – | – | A (100) | A (100) | D (79-50) | – |
| Cc1cc(OC(F)(F)F)ccc1NC(=O)c1cccc(F)c1C(=O)NC(C)C [compound 510] | – | – | – | A (100) | B (99-90) | A (100) | – |
| CC(C)NC(=O)c1cccc(Cl)c1C(=O)Nc1ccc(OC(F)(F)C(F)OC(F)(F)C(F)(F)C(F)(F)F)cc1 (stereo not drawn) [compound 201] | – | – | – | – | – | – | Insecticidal effect, Test Example 1 [1, 9]: A (100); Insecticidal effect, Test Example 2 [2, 7]: B (99-90); Insecticidal effect, Test Example 3 [3, 8]: A (100) |
